Test results from the CheMixHub ionic liquid set.
± gives the uncertainty stated by the source.

Assay: xn = mol fraction of the nth substance listed

CCCO + CC[n+]1ccn(C)c1.N#C[S-]
101 kPa, x2 = 0
Conditions | viscosity [mPa·s]
283.15 K | 2.78 ± 0.07
293.15 K | 2.18 ± 0.07
303.15 K | 1.72 ± 0.07
313.15 K | 1.36 ± 0.07
323.15 K | 1.11 ± 0.07

CC[n+]1ccn(C)c1.CS(=O)(=O)[O-] + CC[n+]1ccn(C)c1.N#C[S-] + O
viscosity [mPa·s], 100 kPa
Conditions | 298.15 K | 323.15 K
x2 = 0, x1 = 1 | 166.9 ± 4.2 | 46.66 ± 0.95
x2 = 0.03875, x1 = 0.1179 | 5.47 ± 0.11 | 2.895 ± 0.06
x2 = 0.0437, x1 = 0.133 | 6.29 ± 0.13 | 3.29 ± 0.07
x2 = 0.04778, x1 = 0.1454 | 6.96 ± 0.14 | 3.598 ± 0.074
x2 = 0.04973, x1 = 0.05117 | 2.902 ± 0.06 | 1.645 ± 0.034
x2 = 0.07374, x1 = 0.07586 | 4.308 ± 0.088 | 2.366 ± 0.049
x2 = 0.08472, x1 = 0.2579 | 14.08 ± 0.29 | 6.86 ± 0.14
x2 = 0.09552, x1 = 0.09828 | 5.65 ± 0.12 | 3.039 ± 0.062
x2 = 0.132, x1 = 0.4018 | 27.86 ± 0.57 | 12.33 ± 0.25
x2 = 0.1688, x1 = 0.1737 | 10.72 ± 0.22 | 5.46 ± 0.11
x2 = 0.1857, x1 = 0.5652 | 56.4 ± 1.1 | 21.34 ± 0.43
x2 = 0.1882, x1 = 0.06242 | 5.9 ± 0.12 | 3.31 ± 0.07
x2 = 0.2473, x1 = 0.7527 | 102.6 ± 2.3 | 32.99 ± 0.67
x2 = 0.2641, x1 = 0.2717 | 19.62 ± 0.4 | 9.31 ± 0.19
x2 = 0.3704, x1 = 0.3811 | 35.52 ± 0.72 | 15.09 ± 0.31
x2 = 0.3722, x1 = 0.1235 | 12.81 ± 0.26 | 6.61 ± 0.13
x2 = 0.4929, x1 = 0.5071 | 63.5 ± 1.3 | 23.49 ± 0.48
x2 = 0.5588, x1 = 0.1854 | 23.25 ± 0.47 | 10.99 ± 0.22
x2 = 0.7509, x1 = 0.2491 | 38.43 ± 0.78 | 16.41 ± 0.33

CCCO + CC[n+]1ccn(CCOC)c1.N#C[S-]
100 kPa, x2 = 0
Conditions | viscosity [mPa·s]
288.15 K | 2.49 ± 0.14
293.15 K | 2.2 ± 0.12
298.15 K | 1.95 ± 0.11
303.15 K | 1.732 ± 0.095
308.15 K | 1.545 ± 0.085
313.15 K | 1.382 ± 0.076
318.15 K | 1.24 ± 0.068

CCCO + CC[n+]1ccn(CCOC)c1.O=S(=O)([O-])C(F)(F)F
101 kPa, x2 = 0
Conditions | viscosity [mPa·s]
288.15 K | 2.475 ± 0.053
293.15 K | 2.185 ± 0.046
298.15 K | 1.937 ± 0.041
303.15 K | 1.723 ± 0.037
308.15 K | 1.537 ± 0.033
313.15 K | 1.377 ± 0.029
318.15 K | 1.235 ± 0.026

CCCC[n+]1ccn(C)c1.N#C[S-] + CN1CCCC1=O
viscosity [mPa·s], 101 kPa
Conditions | x1 = 0.0009705 | x1 = 0.001495 | x1 = 0.002117 | x1 = 0.002433 | x1 = 0.003004 | x1 = 0.003507 | x1 = 0.004097 | x1 = 0.00451
288.15 K | 2.139 ± 0.023 | 2.145 ± 0.023 | 2.153 ± 0.023 | 2.158 ± 0.023 | 2.163 ± 0.023 | 2.166 ± 0.023 | 2.172 ± 0.023 | 2.178 ± 0.023
298.15 K | 1.804 ± 0.02 | 1.808 ± 0.02 | 1.811 ± 0.02 | 1.813 ± 0.02 | 1.821 ± 0.02 | 1.827 ± 0.02 | 1.834 ± 0.02 | 1.843 ± 0.02
308.15 K | 1.563 ± 0.018 | 1.575 ± 0.018 | 1.582 ± 0.018 | 1.586 ± 0.018 | 1.593 ± 0.018 | 1.604 ± 0.018 | 1.616 ± 0.019 | 1.623 ± 0.019
318.15 K | 1.295 ± 0.017 | 1.305 ± 0.018 | 1.311 ± 0.018 | 1.317 ± 0.018 | 1.322 ± 0.018 | 1.327 ± 0.018 | 1.337 ± 0.018 | 1.349 ± 0.018

C[n+]1ccn(CCCCCn2cc[n+](C)c2)c1.O=S(=O)([N-]S(=O)(=O)C(F)(F)F)C(F)(F)F.O=S(=O)([N-]S(=O)(=O)C(F)(F)F)C(F)(F)F + CN1CCCC1=O
viscosity [mPa·s], 101 kPa
Conditions | 293.15 K | 303.15 K | 313.15 K | 323.15 K | 333.15 K
x1 = 0.3841 | 153.6 ± 6.3 | 96 ± 2.9 | 60.8 ± 1.4 | 41.6 ± 1 | 25.6 ± 0.6
x1 = 0.5551 | 349 ± 23 | 188.8 ± 8.7 | 118.4 ± 4.1 | 76.8 ± 2 | 51.2 ± 1.1
x1 = 1 | 1123 ± 120 | 557 ± 45 | 310 ± 19 | 188.8 ± 8.7 | 121.6 ± 4.3

CC(=O)[O-].CC[n+]1ccn(C)c1 + CN(CCO)CCO
101 kPa
Conditions | electrical conductivity [S/m] | viscosity [mPa·s]
288.15 K, x1 = 0.2002 | 0.036 ± 0.004 | 150.1 ± 9.3
288.15 K, x1 = 0.4995 | 0.066 ± 0.007 | 174 ± 11
293.15 K, x1 = 0.4001 | 0.071 ± 0.007 | 123.1 ± 7.6
298.15 K, x1 = 0.4995 | 0.112 ± 0.011 | 97.7 ± 6
303.15 K, x1 = 0.2002 | 0.065 ± 0.007 | 65.1 ± 3.9
303.15 K, x1 = 0.5998 | 0.171 ± 0.017 | 81.8 ± 5
303.15 K, x1 = 1 | 0.358 ± 0.036 | 102.4 ± 6.3
308.15 K, x1 = 0.8999 | 0.384 ± 0.038 | 73.4 ± 4.4
313.15 K, x1 = 0.4995 | 0.229 ± 0.023 | 48.5 ± 2.9
313.15 K, x1 = 0.7003 | 0.343 ± 0.034 | 52.3 ± 3.2
313.15 K, x1 = 0.7998 | 0.401 ± 0.04 | 54.1 ± 3.3
318.15 K, x1 = 0.1002 | 0.051 ± 0.005 | 29.4 ± 1.8
318.15 K, x1 = 0.7003 | 0.426 ± 0.043 | 42.4 ± 2.6
318.15 K, x1 = 0.8999 | 0.598 ± 0.06 | 46.3 ± 2.8
318.15 K, x1 = 1 | 0.724 ± 0.072 | 47.7 ± 2.9
323.15 K, x1 = 0.1002 | 0.063 ± 0.006 | 23.5 ± 1.4
323.15 K, x1 = 1 | 0.883 ± 0.088 | 39 ± 2.4
328.15 K, x1 = 0.1002 | 0.075 ± 0.008 | 18.9 ± 1.1
328.15 K, x1 = 0.4995 | 0.414 ± 0.041 | 26.5 ± 1.6
328.15 K, x1 = 0.5998 | 0.519 ± 0.052 | 27.6 ± 1.7
333.15 K, x1 = 0.8999 | 1.06 ± 0.11 | 25.7 ± 1.5
333.15 K, x1 = 1 | 1.25 ± 0.12 | 26.7 ± 1.6
343.15 K, x1 = 0.4001 | 0.52 ± 0.052 | 14.88 ± 0.9
348.15 K, x1 = 0.4995 | 0.795 ± 0.08 | 13.87 ± 0.84
353.15 K, x1 = 0.2002 | 0.331 ± 0.033 | 8.91 ± 0.54
353.15 K, x1 = 0.5998 | 1.2 ± 0.12 | 12.74 ± 0.77
353.15 K, x1 = 0.7998 | 1.68 ± 0.17 | –

CC[N+](CC)(CC)CC.[Cl-] + CNCCO
101.3 kPa
Conditions | viscosity [mPa·s]
293.15 K, x1 = 0.1413 | 23.7 ± 2.4
303.15 K, x1 = 0.1114 | 14.3 ± 1.4
308.15 K, x1 = 0.09139 | 11.4 ± 1.1
313.15 K, x1 = 0.1413 | 10.3 ± 1
318.15 K, x1 = 0.1413 | 8.78 ± 0.88
323.15 K, x1 = 0.1114 | 7.1 ± 0.71
323.15 K, x1 = 0.1413 | 7.56 ± 0.76
328.15 K, x1 = 0.09139 | 5.45 ± 0.55

CCCCc1n(S(=O)(=O)O)cc[n+]1S(=O)(=O)O.O=C([O-])C(F)(F)F + CO
electrical conductivity [S/m], 101 kPa
Conditions | x1 = 0.0104 | x1 = 0.0205 | x1 = 0.02551
298.15 K | 1.59 ± 0.032 | 2.16 ± 0.043 | –
308.15 K | – | – | 2.28 ± 0.046
